In patent EP4755888A1 (ILAb Co., Ltd., priority 2023, dated 2025):

Target: PD-1/PD-L1 (Homo sapiens, UniProt Q9NZQ7)
Assay: TR-FRET PD-1/PD-L1 binding inhibition at the molecular level (free proteins)
Conditions: Tag1-PD-L1 and Tag2-PD-1 proteins, twelve concentrations from 200 nM, 2 hours at room temperature, read-out: FRET assay (IC50)
How it was run: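 HTRF read-out at 665/620 nm after 2 h at room temperature. Detection used anti-Tag1 Eu cryptate plus anti-Tag2 XL665 antibodies. Tagged PD-L1 and PD-1 proteins were pre-mixed with compound across twelve […] 1:2 dilutions starting at 200 nM.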

Chain of PD-1/PD-L1 (Q9NZQ7 19-238 limits assumed): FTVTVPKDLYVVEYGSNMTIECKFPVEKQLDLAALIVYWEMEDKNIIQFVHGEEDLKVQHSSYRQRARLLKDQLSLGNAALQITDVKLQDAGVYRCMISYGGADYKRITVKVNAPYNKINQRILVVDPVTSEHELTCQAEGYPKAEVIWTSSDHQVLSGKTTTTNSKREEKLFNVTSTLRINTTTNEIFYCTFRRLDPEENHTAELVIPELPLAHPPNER

Structure (SMILES)	IC50 [nM]
Cc1c(NC(=O)c2cc3n(n2)CCCC3=O)cccc1-c1cccc(NC(=O)c2cc3n(n2)CCCC3O)c1C (stereo not drawn) [Compound 2, N-(2,2'-dimethyl-3'-(4-oxo-4,5,6,7-tetrahydropyrazolo[1,5-a]pyridine-2-carboxamido)-[1,1'-biphenyl]-3-yl)-4-hydroxy-4,5,6,7-tetrahydropyrazolo[1,5-a]pyridine-2-carboxamide]	< 10
Cc1c(NC(=O)c2cc3n(n2)CCCC3N2CC[C@@H](C(=O)O)C2)cccc1-c1cccc(Nc2nccc3cc(CN4CC[C@@H](O)C4)cnc23)c1Cl (stereo partly drawn) [Compound 42, (3R)-1-(2-((2'-chloro-3'-((3-(((R)-3-hydroxypyrrolidin-1-yl)methyl)-1,7-naphthyridin-8-yl)amino)-2-methyl-[1,1'-biphenyl]-3-yl)carbamoyl)-4,5,6,7-tetrahydropyrazolo[1,5-a]pyridin-4-yl)pyrrolidine-3-carboxylic acid]	< 10
Cc1c(NC(=O)c2ccc(CN3CC[C@@H](O)C3)cn2)cccc1-c1cccc(NC(=O)c2cc3n(n2)CCCC3N2CC[C@@H](C(=O)O)C2)c1C (stereo partly drawn) [Compound 96, (3R)-1-(2-((3'-(5-(((R)-3-hydroxypyrrolidin-1-yl)methyl)picolinamido)-2,2'-dimethyl-[1,1'-biphenyl]-3-yl)carbamoyl)-4,5,6,7-tetrahydropyrazolo[1,5-a]pyridin-4-yl)pyrrolidine-3-carboxylic acid]	< 10
Cc1c(Nc2nccc3cc(CN4CC[C@@H](O)C4)cnc23)cccc1-c1cccc(NC(=O)c2cc3n(n2)CCCC3NC[C@@H]2CCC(=O)N2)c1Cl (stereo partly drawn) [Compound 31, N-(2-chloro-3'-((3-(((R)-3-hydroxypyrrolidin-1-yl)methyl)-1,7-naphthyridin-8-yl)amino)-2'-methyl-[1,1'-biphenyl]-3-yl)-4-((((S)-5-oxopyrrolidin-2-yl)methyl)amino)-4,5,6,7-tetrahydropyrazolo[1,5-a]pyridine-2-carboxamide]	< 10
O=C(Nc1cccc(-c2cccc(NC(=O)c3cc4n(n3)CCCC4NCCO)c2Cl)c1Cl)c1ccc(CNCCO)cn1 (stereo not drawn) [Compound 83, N-(2,2'-dichloro-3'-(5-(((2-hydroxyethyl)amino)methyl)picolinamido)-[1,1'-biphenyl]-3-yl)-4-((2-hydroxyethyl)amino)-4,5,6,7-tetrahydropyrazolo[1,5-a]pyridine-2-carboxamide]	< 10
COc1cc(-c2cccc(-c3cccc(NC(=O)c4cc5n(n4)CCCC5O)c3C)c2C)cc(F)c1CNCCNC(C)=O (stereo not drawn) [Compound 112-1, N-(4"-(((2-acetamidoethyl)amino)methyl)-3"-fluoro-5"-methoxy-2,2'-dimethyl-[1,1':3',1"-terphenyl]-3-yl)-4-hydroxy-4,5,6,7-tetrahydropyrazolo[1,5-a]pyridine-2-carboxamide]	< 10
COc1cc(-c2cccc(-c3cccc(NC(=O)c4cc5n(n4)CCCC5O)c3C)c2C)cc(F)c1CN1CC[C@@H](O)C1 (stereo partly drawn) [Compound 113, N-(3"-fluoro-4"-(((R)-3-hydroxypyrrolidin-1-yl)methyl)-5"-methoxy-2,2'-dimethyl-[1,1':3',1"-terphenyl]-3-yl)-4-hydroxy-4,5,6,7-tetrahydropyrazolo[1,5-a]pyridine-2-carboxamide]	< 10
O=C(Nc1cccc(-c2cccc(Nc3nccc4cc(CN5CC[C@@H](O)C5)cnc34)c2Cl)c1Cl)c1cc2n(n1)CCCC2NC1CCC(O)CC1 (stereo partly drawn) [Compound 233, N-(2,2'-dichloro-3'-((3-(((R)-3-hydroxypyrrolidin-1-yl)methyl)-1,7-naphthyridin-8-yl)amino)-[1,1'-biphenyl]-3-yl)-4-((4-hydroxycyclohexyl)amino)-4,5,6,7-tetrahydropyrazolo[1,5-a]pyridine-2-carboxamideide]	10 to 100
COc1cc(-c2cccc(-c3cccc(NC(=O)c4cc5n(n4)CCCC5NCCO)c3Cl)c2Cl)cc(F)c1CNCCO (stereo not drawn) [Compound 124, N-(2,2'-dichloro-3"-fluoro-4"-(((2-hydroxyethyl)amino)methyl)-5"-methoxy-[1,1':3',1"-terphenyl]-3-yl)-4-((2-hydroxyethyl)amino)-4,5,6,7-tetrahydropyrazolo[1,5-a]pyridine-2-carboxamide]	< 10
O=C(Nc1cccc(-c2cccc(Nc3nc(C(F)F)nc4cc(CN5CC[C@@H](O)C5)cnc34)c2Cl)c1Cl)c1cc2n(n1)CCCC2NCCO (stereo partly drawn) [Compound 141, N-(2,2'-dichloro-3'-((2-(difluoromethyl)-7-(((R)-3-hydroxypyrrolidin-1-yl)methyl)pyrido[3,2-d]pyrimidin-4-yl)amino)-[1,1'-biphenyl]-3-yl)-4-((2-hydroxyethyl)amino)-4,5,6,7-tetrahydropyrazolo[1,5-a]pyridine-2-carboxamide]	10 to 100

Now from value to compound:

IC50 [nM]	Structure (SMILES)
< 10	O=C(O)CNC1CCCn2nc(C(=O)Nc3cccc(-c4cccc(NC(=O)c5ccc(CNCCO)c(F)n5)c4Cl)c3Cl)cc21 (stereo not drawn) [Compound 198, 2-((2-((2,2'-dichloro-3'-(6-fluoro-5-(((2-hydroxyethyl)amino)methyl)picolinamido)-[1,1'-biphenyl]-3-yl)carbamoyl)-4,5,6,7-tetrahydropyrazolo[1,5-a]pyridin-4-yl)amino)acetic acid]
< 10	Cc1nc(Nc2cccc(-c3cccc(NC(=O)c4cc5n(n4)CCC[C@H]5NC(C)(C)C(=O)O)c3Cl)c2Cl)c2ncccc2n1 [Compound 280, (R)-2-((2-((2,2'-dichloro-3'-((2-methylpyrido[3,2-d]pyrimidin-4-yl)amino)-[1,1'-biphenyl]-3-yl)carbamoyl)-4,5,6,7-tetrahydropyrazolo[1,5-a]pyridin-4-yl)amino)-2-methylpropanoic acid]
< 10	O=C(Nc1cccc(-c2cccc(Nc3nccc4nccnc34)c2Cl)c1Cl)c1cc2n(n1)CCC[C@H]2N1CC(C(=O)O)C1 [Compound 263, (R)-1-(2-((2,2'-dichloro-3'-(pyrido[3,4-b]pyrazin-5-ylamino)-[1,1'-biphenyl]-3-yl)carbamoyl)-4,5,6,7-tetrahydropyrazolo[1,5-a]pyridin-4-yl)azetidine-3-carboxylic acid]
10 to 100	O=C(Nc1cccc(-c2cccc(Nc3nccc4cc(CN5CC[C@@H](O)C5)cnc34)c2Cl)c1Cl)c1cc2n(n1)CCCC2N1CC(O)C1 (stereo partly drawn) [Compound 232, N-(2,2'-dichloro-3'-((3-(((R)-3-hydroxypyrrolidin-1-yl)methyl)-1,7-naphthyridin-8-yl)amino)-[1,1'-biphenyl]-3-yl)-4-(3-hydroxyazetidin-1-yl)-4,5,6,7-tetrahydropyrazolo[1,5-a]pyridine-2-carboxamide]
< 10	COc1cc(-c2cccc(-c3cccc(NC(=O)c4cc5n(n4)CCC[C@H]5NCC(=O)O)c3Cl)c2Cl)cc(F)c1CNCCO [Compound 246, (R)-2-((2-((2,2'-dichloro-3"-fluoro-4"-(((2-hydroxyethyl)amino)methyl)-5"-methoxy-[1,1':3',1"-terphenyl]-3-yl)carbamoyl)-4,5,6,7-tetrahydropyrazolo[1,5-a]pyridin-4-yl)amino)acetic acid]
< 10	O=C(Nc1cccc(-c2cccc(NC(=O)c3nc4c(s3)CN(CCF)CC4)c2Cl)c1Cl)c1cc2n(n1)CCCC2NCCO (stereo not drawn) [Compound 150-1, N-(2,2'-dichloro-3'-(4-((2-hydroxyethyl)amino)-4,5,6,7-tetrahydropyrazolo[1,5-a]pyridine-2-carboxamido)-[1,1'-biphenyl]-3-yl)-5-(2-fluoroethyl)-4,5,6,7-tetrahydrothiazolo[5,4-c]pyridine-2-carboxamide]
< 10	Cc1c(NC(=O)c2ccc(CN3CC[C@@H](O)C3)cn2)cccc1-c1cccc(NC(=O)c2cc3n(n2)CCN(CCO)C3)c1C [Compound 325, (R)-5-(2-hydroxyethyl)-N-(3'-(5-((3-hydroxypyrrolidin-1-yl)methyl)picolinamido)-2,2'-dimethyl-[1,1'-biphenyl]-3-yl)-4,5,6,7-tetrahydropyrazolo[1,5-a]pyrazine-2-carboxamide]
10 to 100	COc1cc(-c2cccc(-c3cccc(NC(=O)c4cc5n(n4)CCC[C@@H]5NCC(=O)O)c3Cl)c2Cl)cc(F)c1CNC[C@@H]1CCC(=O)N1 [Compound 249, 2-(((S)-2-((2,2'-dichloro-3"-fluoro-5"-methoxy-4"-(((((S)-5-oxopyrrolidin-2-yl)methyl)amino)methyl)-[1,1':3',1"-terphenyl]-3-yl)carbamoyl)-4,5,6,7-tetrahydropyrazolo[1,5-a]pyridin-4-yl)amino)acetic acid]
10 to 100	CN[C@@H]1CCCn2nc(C(=O)Nc3cccc(-c4cccc(Nc5nc(C(F)F)nc6cc(CN7CC[C@@H](O)C7)cnc56)c4Cl)c3Cl)cc21 [Compound 355, (R)-N-(2,2'-dichloro-3'-((2-(difluoromethyl)-7-(((R)-3-hydroxypyrrolidin-1-yl)methyl)pyrido[3,2-d]pyrimidin-4-yl)amino)-[1,1'-biphenyl]-3-yl)-4-(methylamino)-4,5,6,7-tetrahydropyrazolo[1,5-a]pyridine-2-carboxamide]
< 10	COc1cc(-c2cccc(-c3cccc(NC(=O)c4cc5n(n4)CCCC5NCC(=O)O)c3Cl)c2Cl)cc(F)c1CNC[C@@H]1CCC(=O)N1 (stereo partly drawn) [Compound 188, 2-((2-((2,2'-dichloro-3"-fluoro-5"-methoxy-4"-(((((S)-5-oxopyrrolidin-2-yl)methyl)amino)methyl)-[1,1':3',1"-terphenyl]-3-yl)carbamoyl)-4,5,6,7-tetrahydropyrazolo[1,5-a]pyridin-4-yl)amino)acetic acid]
< 10	CN(C)[C@H]1CCCn2nc(C(=O)Nc3cccc(-c4cccc(NC(=O)c5cc6n(n5)CCC[C@@H]6NCC(=O)O)c4Cl)c3Cl)cc21 [Compound 314, 2-(((S)-2-((2,2'-dichloro-3'-((S)-4-(dimethylamino)-4,5,6,7-tetrahydropyrazolo[1,5-a]pyridine-2-carboxamido)-[1,1'-biphenyl]-3-yl)carbamoyl)-4,5,6,7-tetrahydropyrazolo[1,5-a]pyridin-4-yl)amino)acetic acid]
